# Measured values published in article PMC4914440 (Pharmacological research, 2016).
# Where two headings read alike, the source gives them in different places.
# Columns and labels:
# [1] = system: endogenous β-adrenergic receptor; experiment: cAMP-Glo assay, untransfected HeLa cells stimulated with; format: cell-based, human
# r5-HT6 = r5-HT6 (Rattus norvegicus, UniProt P31388); experiment: Radioligand displacement by a fixed drug concentration, [3H]LSD
# α1β2γ2 GABAA receptors = α1β2γ2 GABAA receptors (Rattus norvegicus, UniProt P18508+P62813+P63138); experiment: Whole cell electrophysiology, GABA-activated currents, HEK293 cells; format: cell-based; conditions: 30 μM; for reduction of GABA-activated currents: EC30 GABA (5 μM)
# Sequence of α1β2γ2 GABAA receptors (P62813 28-455): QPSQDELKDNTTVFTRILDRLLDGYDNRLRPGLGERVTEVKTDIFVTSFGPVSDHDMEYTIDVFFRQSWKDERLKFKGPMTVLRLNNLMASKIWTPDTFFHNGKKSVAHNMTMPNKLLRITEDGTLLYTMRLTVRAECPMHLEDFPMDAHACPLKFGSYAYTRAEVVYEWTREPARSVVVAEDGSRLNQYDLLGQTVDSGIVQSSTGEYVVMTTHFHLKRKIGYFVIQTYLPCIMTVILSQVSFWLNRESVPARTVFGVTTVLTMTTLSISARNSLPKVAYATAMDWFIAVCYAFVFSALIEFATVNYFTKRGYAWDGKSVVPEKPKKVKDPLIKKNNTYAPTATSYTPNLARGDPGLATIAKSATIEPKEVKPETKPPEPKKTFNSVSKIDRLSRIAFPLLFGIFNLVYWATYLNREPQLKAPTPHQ
# Sequence of α1β2γ2 GABAA receptors (P63138 26-474): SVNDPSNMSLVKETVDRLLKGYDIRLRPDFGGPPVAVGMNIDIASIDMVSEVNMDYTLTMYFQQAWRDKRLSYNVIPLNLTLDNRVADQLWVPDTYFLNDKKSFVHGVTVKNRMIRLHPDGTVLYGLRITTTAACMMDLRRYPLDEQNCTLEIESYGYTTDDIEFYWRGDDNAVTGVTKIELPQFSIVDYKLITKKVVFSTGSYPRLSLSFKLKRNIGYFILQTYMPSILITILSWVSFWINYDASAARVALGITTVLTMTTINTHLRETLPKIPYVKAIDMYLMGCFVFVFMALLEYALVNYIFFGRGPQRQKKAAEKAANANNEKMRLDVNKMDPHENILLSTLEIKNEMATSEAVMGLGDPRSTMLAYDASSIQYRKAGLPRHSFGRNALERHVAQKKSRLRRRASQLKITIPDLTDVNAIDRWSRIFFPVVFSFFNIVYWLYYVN
# Sequence of α1β2γ2 GABAA receptors (P18508 39-466): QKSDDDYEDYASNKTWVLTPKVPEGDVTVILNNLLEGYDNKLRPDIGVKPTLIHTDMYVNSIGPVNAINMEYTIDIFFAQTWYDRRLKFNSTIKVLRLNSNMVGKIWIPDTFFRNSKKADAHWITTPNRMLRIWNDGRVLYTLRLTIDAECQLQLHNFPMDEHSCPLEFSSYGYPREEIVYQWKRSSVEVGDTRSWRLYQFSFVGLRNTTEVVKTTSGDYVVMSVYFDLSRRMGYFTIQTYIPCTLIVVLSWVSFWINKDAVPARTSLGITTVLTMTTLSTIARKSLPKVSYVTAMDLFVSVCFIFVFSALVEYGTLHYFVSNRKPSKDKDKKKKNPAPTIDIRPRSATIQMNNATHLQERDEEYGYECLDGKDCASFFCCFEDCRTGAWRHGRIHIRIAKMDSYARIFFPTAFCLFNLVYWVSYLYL
# h5-HT2C = target: T1, h5-HT2C (Homo sapiens, UniProt P28335); experiment: Radioligand displacement by a fixed drug concentration, [3H]mesulergine
# T1 sequence (P28335 33-458): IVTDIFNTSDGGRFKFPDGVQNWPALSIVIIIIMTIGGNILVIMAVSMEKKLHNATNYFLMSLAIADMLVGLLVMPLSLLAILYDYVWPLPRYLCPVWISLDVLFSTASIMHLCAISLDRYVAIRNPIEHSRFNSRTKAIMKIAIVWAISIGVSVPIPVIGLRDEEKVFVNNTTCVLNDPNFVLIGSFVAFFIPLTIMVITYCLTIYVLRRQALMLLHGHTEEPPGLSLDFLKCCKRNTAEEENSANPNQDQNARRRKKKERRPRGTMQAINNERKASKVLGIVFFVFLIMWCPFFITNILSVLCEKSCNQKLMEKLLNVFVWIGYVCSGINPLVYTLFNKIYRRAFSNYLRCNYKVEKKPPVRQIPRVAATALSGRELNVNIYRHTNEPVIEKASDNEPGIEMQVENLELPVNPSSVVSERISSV
# 5-HT2A receptor [2] = target: T2, 5-HT2A receptor (Homo sapiens, UniProt P28223); experiment: Intracellular calcium assay of Gq signaling, HEK293 cells; format: cell-based; conditions: for agonist efficacy class: intracellular calcium
# T2 sequence (P28223 whole entry): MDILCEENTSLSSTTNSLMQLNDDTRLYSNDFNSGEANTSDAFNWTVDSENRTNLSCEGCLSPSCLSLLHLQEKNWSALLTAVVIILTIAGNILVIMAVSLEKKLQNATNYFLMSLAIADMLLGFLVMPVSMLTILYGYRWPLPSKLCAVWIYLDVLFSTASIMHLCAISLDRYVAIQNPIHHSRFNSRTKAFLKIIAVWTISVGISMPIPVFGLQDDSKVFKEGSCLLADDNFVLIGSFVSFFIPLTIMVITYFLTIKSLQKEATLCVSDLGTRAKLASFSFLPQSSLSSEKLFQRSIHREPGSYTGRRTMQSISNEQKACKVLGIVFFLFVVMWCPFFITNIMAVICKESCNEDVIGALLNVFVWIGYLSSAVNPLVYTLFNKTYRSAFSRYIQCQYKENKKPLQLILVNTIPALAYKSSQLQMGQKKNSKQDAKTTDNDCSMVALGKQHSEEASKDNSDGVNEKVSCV
# [3] = cited from earlier work
# h5-HT2A = h5-HT2A (Homo sapiens, UniProt P28223)
# Sequence of h5-HT2A (P28223 whole entry): as above
# M3 muscarinic receptor = M3 muscarinic receptor (Homo sapiens, UniProt P20309); experiment: Intracellular calcium assay, untransfected HEK293 cells with endogenous receptor; format: cell-based
# Sequence of M3 muscarinic receptor (P20309 whole entry): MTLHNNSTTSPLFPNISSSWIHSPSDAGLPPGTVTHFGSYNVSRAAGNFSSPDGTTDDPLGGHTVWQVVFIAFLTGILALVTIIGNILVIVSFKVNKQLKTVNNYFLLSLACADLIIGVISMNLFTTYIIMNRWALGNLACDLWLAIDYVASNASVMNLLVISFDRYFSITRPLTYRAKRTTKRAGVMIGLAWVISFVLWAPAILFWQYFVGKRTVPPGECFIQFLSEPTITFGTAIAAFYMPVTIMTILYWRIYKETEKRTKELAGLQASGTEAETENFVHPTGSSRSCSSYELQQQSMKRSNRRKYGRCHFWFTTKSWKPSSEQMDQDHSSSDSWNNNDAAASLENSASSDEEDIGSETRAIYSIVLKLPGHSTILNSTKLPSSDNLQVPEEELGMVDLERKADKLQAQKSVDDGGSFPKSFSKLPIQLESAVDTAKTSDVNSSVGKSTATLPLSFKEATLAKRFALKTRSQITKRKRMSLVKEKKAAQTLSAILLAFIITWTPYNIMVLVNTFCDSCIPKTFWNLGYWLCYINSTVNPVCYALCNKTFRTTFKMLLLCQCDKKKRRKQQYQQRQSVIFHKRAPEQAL
# untransfected HeLa cells = experiment: cAMP-Glo assay, control cells; format: cell-based, human; conditions: efavirenz 30 μM, clozapine 30 μM, 5-HT 1 μM
# 5-HT6 receptor [4] = target: T3, 5-HT6 receptor (Rattus norvegicus, UniProt P31388); experiment: Competition radioligand binding, concentration-response
# T3 sequence (P31388 whole entry): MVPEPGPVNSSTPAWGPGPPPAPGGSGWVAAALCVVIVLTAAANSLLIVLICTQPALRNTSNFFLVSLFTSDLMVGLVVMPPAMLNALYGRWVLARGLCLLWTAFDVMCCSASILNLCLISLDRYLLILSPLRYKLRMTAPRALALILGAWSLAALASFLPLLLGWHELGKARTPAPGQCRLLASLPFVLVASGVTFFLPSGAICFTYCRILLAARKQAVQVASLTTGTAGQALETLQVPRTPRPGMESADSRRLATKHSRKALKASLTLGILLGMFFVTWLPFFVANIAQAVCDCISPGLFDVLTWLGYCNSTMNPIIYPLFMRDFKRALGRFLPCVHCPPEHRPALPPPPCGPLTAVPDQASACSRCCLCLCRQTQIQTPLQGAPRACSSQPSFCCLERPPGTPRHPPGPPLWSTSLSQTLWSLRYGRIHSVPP
# 5-HT6 receptor [5] = target: T3, 5-HT6 receptor; experiment: cAMP-Glo assay of Gs signaling, HeLa cells; format: cell-based
# 5-HT2A receptor [6] = target: T2, 5-HT2A receptor; conditions: cloned human 5-HT2A receptor; cited from earlier work
# untransfected CHO cells = experiment: Intracellular calcium assay, control cells; format: cell-based; conditions: data not shown
# Sequence of r5-HT6 (P31388 whole entry): as above
structure (smiles),measurement,setting,value
CC(C)(C)NC[C@H](O)COc1nsnc1N1CCOCC1 [timolol],effect on (−)-epinephrine stimulated cAMP response,[1],blocked
Cc1ccnc2c1NC(=O)c1cccnc1N2C1CC1 [NVP],interaction (radioligand displacement),"r5-HT6; 10 μM ARV drug, data not shown",no significant interactions
same,interaction (radioligand displacement),r5-HT6; 60 μM ARV drug,"significant, albeit comparatively weak interaction"
same,affinity lower than for efavirenz,"r5-HT6; 5-HT6 receptor, estimated",approximately 30 fold
same,potentiation of GABA-activated currents,α1β2γ2 GABAA receptors; co-application with GABA,8%
same,interaction (radioligand displacement),"h5-HT2C; 10 μM ARV drug, data not shown",no significant interactions
same,interaction (radioligand displacement),h5-HT2C; 60 μM ARV drug,"only NVP displayed a significant, albeit comparatively weak interaction, with the 5-HT6 receptor"
"CCN(CC)C(=O)[C@@H]1C=C2c3cccc4[nH]cc(c34)C[C@H]2N(C)C1 [LSD, Lysergic acid diethylamide]",agonist efficacy class,5-HT2A receptor [2],partial agonists
same,substitution when efavirenz was the discriminative stimulus,[3],partially substituted for efavirenz
Nc1nc(=O)n([C@@H]2CS[C@H](CO)O2)cc1F [FTC],interaction (radioligand displacement),"h5-HT2A; 10 μM ARV drug, data not shown",no significant interactions
same,interaction (radioligand displacement),h5-HT2A; 60 μM ARV drug,"only NVP displayed a significant, albeit comparatively weak interaction, with the 5-HT6 receptor"
same,interaction (radioligand displacement),"r5-HT6; 10 μM ARV drug, data not shown",no significant interactions
same,interaction (radioligand displacement),r5-HT6; 60 μM ARV drug,"only NVP displayed a significant, albeit comparatively weak interaction, with the 5-HT6 receptor"
same,reduction of GABA-activated currents,α1β2γ2 GABAA receptors,36–50 % of control
same,interaction (radioligand displacement),"h5-HT2C; 10 μM ARV drug, data not shown",no significant interactions
same,interaction (radioligand displacement),h5-HT2C; 60 μM ARV drug,"only NVP displayed a significant, albeit comparatively weak interaction, with the 5-HT6 receptor"
COc1cc(CC(C)N)c(OC)cc1I (racemic) [(±)-DOI],agonist efficacy class,5-HT2A receptor [2],partial agonists
CN1[C@@H]2C[C@@H](OC(=O)[C@H](CO)c3ccccc3)C[C@H]1[C@@H]1O[C@@H]12 [scopolamine],block of acetylcholine response,M3 muscarinic receptor,blocked
"NCCc1c[nH]c2ccc(O)cc12 [serotonin, 5-Hydroxytryptamine]",pseudo Hill slope range,5-HT2A receptor [2]; across serum conditions,0.55–0.70
same,change in cAMP levels,untransfected HeLa cells,no significant changes in cAMP levels
same,Ki,5-HT6 receptor [4],0.105 ± 0.008 µM
same,EC50,5-HT6 receptor [5],0.0127 ± 0.0062 µM
same,pseudo Hill slope,5-HT6 receptor [5]; increase in cAMP,1.02 ± 0.35
"COc1cccc([C@H](O)C2CCN(CCc3ccc(F)cc3)CC2)c1OC [MDL100,907]",effect of pretreatment on efavirenz substitution for LSD,[3],this substitution was blocked by pretreatment
CN1CCN(C2=Nc3cc(Cl)ccc3Nc3ccccc32)CC1 [clozapine],change in cAMP levels,untransfected HeLa cells,no significant changes in cAMP levels
same,effect on 5-HT agonist effect,5-HT6 receptor [5]; 30 μM,completely overcame the agonist effects of 5-HT but also reduced cAMP levels to below basal
same,effect on basal cAMP,5-HT6 receptor [5]; 30 μM,significantly reduced basal levels of cAMP
Cc1cn([C@H]2C[C@H](N=[N+]=[N-])[C@@H](CO)O2)c(=O)[nH]c1=O [ZDV],interaction (radioligand displacement),"r5-HT6; 10 μM ARV drug, data not shown",no significant interactions
same,interaction (radioligand displacement),r5-HT6; 60 μM ARV drug,"only NVP displayed a significant, albeit comparatively weak interaction, with the 5-HT6 receptor"
same,reduction of GABA-activated currents,α1β2γ2 GABAA receptors,36–50 % of control
same,interaction (radioligand displacement),"h5-HT2C; 10 μM ARV drug, data not shown",no significant interactions
same,interaction (radioligand displacement),h5-HT2C; 60 μM ARV drug,"only NVP displayed a significant, albeit comparatively weak interaction, with the 5-HT6 receptor"
"CN1CN(c2ccccc2)C2(CCN(CCCC(=O)c3ccc(F)cc3)CC2)C1=O [[^3H]MSP, [3H]methylspiperone]",Kd,5-HT2A receptor [6],0.000246 µM
C[N+](C)(C)CCOC(N)=O [carbachol],Gq-mediated response,untransfected CHO cells,No Gq-mediated response
CC(=O)OCC[N+](C)(C)C [acetylcholine],receptor activation,M3 muscarinic receptor,activated
same,Gq-mediated response,untransfected CHO cells,No Gq-mediated response
